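96-well plates; 48 h exposure; 5 concentrations. Endpoints by linear interpolation between flanking doses. Not reached: highest tested concentration assigned. At the GI50, growth is halved.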 Active and inactive are the calls of the source. Cut-off read from the data, not from the text of the source: active = GI50 up to about 1.1 µM and inactive = higher.
Tests used:
Experiment in all cases: NCI anticancer screen, dose series, 48 h
SK-MEL-5 = test system: SK-MEL-5
HOP-62 = test system: HOP-62
SF-295 = test system: SF-295
HL-60 = test system: HL-60
PC-3 = test system: PC-3
MDA-N = test system: MDA-N
BT-549 = test system: BT-549
M14 = test system: M14
CCRF-CEM = test system: CCRF-CEM
KM-20L2 = test system: KM-20L2
NCI-H460 = test system: NCI-H460
A498 = test system: A498
EKVX = test system: EKVX
RPMI-8226 = test system: RPMI-8226
MDA-MB-231 = test system: MDA-MB-231
A549 = test system: A549
SK-MEL-28 = test system: SK-MEL-28
RXF 393 = test system: RXF 393
SF-268 = test system: SF-268
T47D = test system: T47D

Measured: GI50

O=C1C(c2cnc3ccccc3n2)=C(O)c2ccccc21
inactive: SK-MEL-5 9.75 µM | HOP-62 43.4 µM | SF-295 > 64 µM | HL-60 > 60.4 µM | PC-3 > 46.6 µM | MDA-N > 61.4 µM | BT-549 > 100 µM | M14 > 100 µM | CCRF-CEM > 100 µM | KM-20L2 > 100 µM | NCI-H460 6.9 µM | A498 > 100 µM | EKVX 19.1 µM | RPMI-8226 > 61.1 µM | MDA-MB-231 > 100 µM | A549 > 81.8 µM | SK-MEL-28 > 82.4 µM | RXF 393 9.71 µM | SF-268 > 93.8 µM | T47D 83.6 µM

O=C1Cc2c([nH]c3ccccc23)-c2ccccc2N1 [PAULLONE]
inactive: SK-MEL-5 22.8 µM | HOP-62 33.7 µM | SF-295 37.8 µM | HL-60 15.4 µM | M14 42.5 µM | CCRF-CEM 22.2 µM | KM-20L2 21.4 µM | NCI-H460 34.7 µM | A498 67.8 µM | EKVX 49.5 µM | RPMI-8226 20.2 µM | A549 36.4 µM | SK-MEL-28 48.8 µM | RXF 393 16.1 µM | SF-268 45.2 µM

— ChEMBL document CHEMBL1201862, “PubChem BioAssay data set” (2004)
